Test results from ChEMBL document CHEMBL3352227, “Synthesis, antimycobacterial and antibacterial evaluation of l-[(1R, 2S)-2-fluorocyclopropyl]fluoroquinolone derivatives containing an oxime functional moiety” (Eur J Med Chem, 2014).
Values after ≈ are worked out from the molar mass of the structure shown.

Key:
[1] = tested on: Mycobacterium tuberculosis; test: Antimycobacterial activity against isoniazid and rifampicin resistant Mycobacterium tuberculosis 11277 by MABA method; type: functional
[2] = tested on: Mycobacterium tuberculosis; test: Antimycobacterial activity against isoniazid and rifampicin resistant Mycobacterium tuberculosis 6133 by MABA method; type: functional

Compound	MIC [1] [µg/mL]	MIC [2] [µg/mL]
CO/N=C1/CCN(c2c(F)cc3c(=O)c(C(=O)O)cn([C@@H]4C[C@@H]4F)c3c2OC)CC1N (stereo partly specified)	0.125 (≈ 0.286 µM)	0.0625 (≈ 0.143 µM)
CO/N=C1/CN(c2c(F)cc3c(=O)c(C(=O)O)cn([C@@H]4C[C@@H]4F)c3c2OC)[C@H]1CN	0.25 (≈ 0.592 µM)	0.125 (≈ 0.296 µM)
CCO/N=C1/CN(c2cc3c(cc2F)c(=O)c(C(=O)O)cn3[C@@H]2C[C@@H]2F)CC1CN (stereo partly specified)	0.125 (≈ 0.297 µM)	0.125 (≈ 0.297 µM)
NCC1CN(c2cc3c(cc2F)c(=O)c(C(=O)O)cn3[C@@H]2C[C@@H]2F)C/C1=N/OCc1ccccc1 (stereo partly specified)	0.25 (≈ 0.518 µM)	0.125 (≈ 0.259 µM)
CO/N=C1/CN(c2cc3c(cc2F)c(=O)c(C(=O)O)cn3[C@@H]2C[C@@H]2F)[C@H]1CN	0.25 (≈ 0.637 µM)	0.125 (≈ 0.319 µM)
NC[C@H]1/C(=N\OCc2ccccc2)CN1c1cc2c(cc1F)c(=O)c(C(=O)O)cn2[C@@H]1C[C@@H]1F	0.5 (≈ 1.07 µM)	0.25 (≈ 0.534 µM)
CO/N=C1/CN(c2nc3c(cc2F)c(=O)c(C(=O)O)cn3[C@@H]2C[C@@H]2F)CC1CN (stereo partly specified)	0.25 (≈ 0.614 µM)	0.125 (≈ 0.307 µM)
CCO/N=C1/CN(c2nc3c(cc2F)c(=O)c(C(=O)O)cn3[C@@H]2C[C@@H]2F)CC1CN (stereo partly specified)	0.125 (≈ 0.297 µM)	0.125 (≈ 0.297 µM)
NCC1CN(c2nc3c(cc2F)c(=O)c(C(=O)O)cn3[C@@H]2C[C@@H]2F)C/C1=N/OCc1ccccc1 (stereo partly specified)	0.5 (≈ 1.03 µM)	0.125 (≈ 0.259 µM)
O=C(O)c1cn(C2CC2)c2cc(N3CCNCC3)c(F)cc2c1=O [CIPROFLOXACIN]	0.125 (≈ 0.377 µM)	0.125 (≈ 0.377 µM)
NNC(=O)c1ccncc1 [ISONIAZID]	1 (≈ 7.29 µM)	4 (≈ 29.2 µM)
C[C@H]1COc2c(N3CCN(C)CC3)c(F)cc3c(=O)c(C(=O)O)cn1c23.C[C@H]1COc2c(N3CCN(C)CC3)c(F)cc3c(=O)c(C(=O)O)cn1c23.O [LEVOFLOXACIN]	0.125	0.125
CO[C@H]1/C=C/O[C@@]2(C)Oc3c(C)c(O)c4c(O)c(c(/C=N/N5CCN(C)CC5)c(O)c4c3C2=O)NC(=O)/C(C)=C\C=C\[C@H](C)[C@H](O)[C@@H](C)[C@@H](O)[C@@H](C)[C@H](OC(C)=O)[C@@H]1C [RIFAMPIN]	> 40	> 40
